Assay results: ChEMBL document CHEMBL3580645, “Antiviral Activity of Flexibilane and Tigliane Diterpenoids from Stillingia lineata” (J Nat Prod, 2015)

Experiments:
[1] = in vitro; settings: monkey, Vero cells
[2] = in vitro; settings: chlorocebus sabaeus, Vero cells
[3] = system: PC-3; assay: Cytotoxicity against human PC3 cells at 1 uM after 72 hrs by MTS assay; assay type: functional; settings: PC-3, 72 h
[4] = system: Human immunodeficiency virus 2; assay: microbe, parasite or virus in culture; settings: Human immunodeficiency virus 2, ISOLATE ROD, MT4, 120 h
[5] = system: HCT-116; assay: Cytotoxicity against human HCT116 cells at 1 uM after 72 hrs by MTS assay; assay type: functional; settings: HCT-116, 72 h
[6] = in vitro; settings: human, MT4 cells
[7] = system: Chikungunya virus; assay: microbe, parasite or virus in culture; settings: strain 899, Vero
[8] = in vitro; settings: human, MT4 cells; remark: listed apart in the source
[9] = system: MCF7; assay: Cytotoxicity against human MCF7 cells at 1 uM after 72 hrs by MTS assay; assay type: functional; settings: MCF7, 72 h
[10] = system: Human immunodeficiency virus 1; assay: microbe, parasite or virus in culture; settings: Human immunodeficiency virus 1, 3B, MT4, 120 h
[11] = in vitro; settings: human, MT4 cells; remark: listed apart in the source
[12] = system: Sindbis virus; assay: microbe, parasite or virus in culture; settings: strain HRsp, Vero
[13] = system: Semliki Forest virus; assay: microbe, parasite or virus in culture; settings: strain Vietnam, Vero
[14] = in vitro; settings: monkey, Vero cells; remark: listed apart in the source

SMILES	selectivity ratio [1]	CC50 at 72 h [2]	inhibition at 1 µM [3]	EC50 [4]	inhibition at 1 µM [5]	selectivity ratio [6]	EC50 [7]	CC50 at 72 h [8]	inhibition at 1 µM [9]	EC50 [10]	selectivity ratio [11]	EC50 [12]	EC50 [13]	selectivity ratio [14]
CCC(C)C(=O)O[C@@]12[C@H](OC(C)=O)[C@@H](C)[C@]3(O)[C@@H]4C=C(C)C(=O)[C@@H]4CC(CO)=C[C@H]3[C@@H]1C2(C)C (stereo not given in full)	1.4	105 µM	< 40%	13 µM	< 40%	4	77 µM	85 µM	< 40%	> 85 µM	–	–	–	–
Nc1ccn([C@@H]2CS[C@H](CO)O2)c(=O)n1 [LAMIVUDINE]	–	–	–	15.5 µM	–	> 5.6	–	> 87 µM	–	3.9 µM	> 22	–	–	–
CCC(C)C(=O)O[C@@]12C[C@@H](C)[C@@]3(O)[C@@H](C=C(CO)C[C@]4(O)C(=O)C(C)=C[C@@H]34)[C@@H]1C2(C)C (stereo not given in full)	> 240	> 289 µM	< 40%	0.056 µM	< 40%	2060	1.2 µM	116 µM	< 40%	0.129 µM	899	> 289 µM	> 289 µM	–
Cc1cn([C@H]2C[C@H](N=[N+]=[N-])[C@@H](CO)O2)c(=O)[nH]c1=O [ZIDOVUDINE]	–	–	–	–	–	–	–	> 25 µM	–	–	–	–	–	–
CC/C=C/C=C/C=C\C(=O)O[C@@H]1[C@@H](C)[C@]2(O)[C@@H]3C=C(C)C(=O)[C@@H]3CC(CO)=C[C@H]2[C@@H]2C(C)(C)[C@]12OC(=O)CCC	5.1	7.1 µM	< 40%	0.174 µM	< 40%	33	1.4 µM	8.4 µM	< 40%	0.233 µM	36	5 µM	> 177 µM	1.4
CCCCCCCCC(=O)/C=C/C=C/C=C/C(=O)O[C@@]12C[C@@H](C)[C@@]3(O)[C@@H](C=C(CO)C[C@]4(O)C(=O)C(C)=C[C@@H]34)[C@@H]1C2(C)C	5.9	13 µM	< 40%	0.018 µM	< 40%	1430	2.2 µM	13 µM	< 40%	0.043 µM	299	11 µM	> 168 µM	1.2
O=c1[nH]cnc2c1ncn2[C@H]1CC[C@@H](CO)O1 [DIDANOSINE]	–	–	–	9.6 µM	–	> 5.2	–	> 50 µM	–	10.8 µM	> 4.6	–	–	–
CCC(C)C(=O)O[C@@]12[C@H](OC(C)=O)[C@@H](C)[C@@]3(O)[C@@H](C=C(CO)C[C@]4(O)C(=O)C(C)=C[C@@H]34)[C@@H]1C2(C)C (stereo not given in full)	41	134 µM	< 40%	0.107 µM	< 40%	949	3.3 µM	102 µM	< 40%	0.271 µM	376	> 255 µM	> 255 µM	–
Cc1ccnc2c1NC(=O)c1cccnc1N2C1CC1 [NEVIRAPINE]	–	–	–	> 15 µM	–	–	–	> 15 µM	–	0.01 µM	148	–	–	–
CCN(CC)CCCC(C)Nc1ccnc2cc(Cl)ccc12 (stereo not given) [CHLOROQUINE]	–	89 µM	–	–	–	–	–	–	–	–	–	–	–	–
